According to US4102917A, “Substituted phenyl naphthalenesulfonic acids” (American Cyanamid Company, priority 1977, dated 1978):
Structures can show the parent of a compound that is named as a salt.

What was measured:
[1] = tested on: late components of human complement (C3-C9); assay: Test, Code 035 (C3-C9 inhibitor), lysis of EAC 142; assay type: cell-based; settings: activity in wells, two-fold serial dilution assay; higher well number indicates higher activity; N=Negative
Source text: (§1) An active inhibitor protects C2 from C1 and C4; (ii) Test, Code 035 (C3-C9 inhibitor) -- This test determines the ability of the late components of human complement (C3-C9) to lyse EAC 142 in the presence of appropriate dilutions of the test compound. An active inhibitor protects EAC 142 from lysis by human C3-C9; (iii) Test, Code 036 (C-Shunt inhibitor) -- In this test human erythrocytes rendered fragile are lysed in autologous serum via the shunt pathway activated by cobra venom factor in the presence of appropriate dilutions of the test compound. Inhibition of the shunt pathway results in failure of lysis; (iv) Forssman Vasculitis Test -- Here, the well known complement dependent lesion, Forssman vasculitis, is produced in guinea pigs by intradermal injection of rabbit anti-Forssman antiserum. […]

[2] = tested on: human C1; assay: Test, Code 026 (C1 inhibitor); assay type: biochemical; settings: activity in wells, two-fold serial dilution assay; higher well number indicates higher activity
Source text: as §1

[3] = tested on: shunt pathway; assay: Test, Code 036 (C-Shunt inhibitor), lysis of human erythrocytes via shunt pathway activated by cobra venom factor; assay type: cell-based; settings: activity in wells, two-fold serial dilution assay; higher well number indicates higher activity
Source text: as §1

[4] = tested on: whole complement; assay: Complement Level Reduction Test (in vivo activity, guinea pig); settings: 200 mg/kg
Source text: An active inhibitor protects C2 from C1 and C4; (ii) Test, Code 035 (C3-C9 inhibitor) -- This test determines the ability of the late components of human complement (C3-C9) to lyse EAC 142 in the presence of appropriate dilutions of the test compound. An active inhibitor protects EAC 142 from lysis by human C3-C9; (iii) Test, Code 036 (C-Shunt inhibitor) -- In this test human erythrocytes rendered fragile are lysed in autologous serum via the shunt pathway activated by cobra venom factor in the presence of appropriate dilutions of the test compound. Inhibition of the shunt pathway results in failure of lysis; (iv) Forssman Vasculitis Test -- Here, the well known complement dependent lesion, Forssman vasculitis, is produced in guinea pigs by intradermal injection of rabbit anti-Forssman antiserum. The lesion is measured in terms of diameter, edema and hemorrhage and the extent to which a combined index of these is inhibited by prior intraperitoneal injection of the test compound at 200 mg/kg is then reported, unless otherwise stated; (v) Forssman Shock Test -- Lethal shock is produced in guinea pigs by an i.v. injection of anti-Forssman antiserum and the harmonic mean death time of treated guinea pigs is compared with that of simultaneous controls; (vi) Complement Level Reduction Test -- In this test, the above dosed guinea pigs, or others, are bled for serum and the complement level is determined in undiluted serum by the capillary tube method of U.S. Pat. No. 3,876,376 and compared to undosed control guinea pigs; and (vii) Cap 50 Test -- Here, appropriate amounts of the test compound are added to a pool of guinea pig serum in vitro, after which the undiluted serum capillary tube assay referred to above is run. The concentration of compound inhibiting 50 % is reported.
With reference to Table I, guinea pigs weighing about 300 g were dosed intravenously (i.v.) or intraperitoneally (i.p.) with 200 mg/kg of the test compound dissolved in saline and adjusted to pH 7-8. […] The serum was tested for whole complement using the capillary tube assay. Percent inhibition was calculated by comparison with simultaneous controls. The results appear in Table I together with results of tests, code 026, 035, 036, Cap 50, % inhibition and Forssman shock.

[5] = tested on: hereditary angioneurotic edema; settings: literature; cited from earlier work
[6] = tested on: complement system; settings: literature; cited from earlier work
[7] = tested on: human serum; settings: in vitro and in vivo, literature; cited from earlier work

O=C(O)c1cc(NC(=O)c2cc(NC(=S)Nc3cc(S(=O)(=O)O)cc4cc(S(=O)(=O)O)cc(S(=O)(=O)O)c34)cc(C(=O)Nc3cc(C(=O)O)cc(C(=O)O)c3)c2)cc(C(=O)O)c1 [5,5'-{{5-[2-Thio-3-(3,6,8-trisulfo-1-naphthyl)ureido]-1,3-phenylene}bis(carbonylimino)}diisophthalic acid heptasodium salt]
C-Late 035 Wells [1]: N
C1 026 Wells [2]: +5 Wells
Shunt Inhibition 036 Wells [3]: +1 Wells

O=C(Nc1cc(S(=O)(=O)[O-])cc2cc(S(=O)(=O)[O-])cc(S(=O)(=O)[O-])c12)c1cc(NC(=S)Nc2cc(S(=O)(=O)[O-])cc3cc(S(=O)(=O)[O-])cc(S(=O)(=O)[O-])c23)cc(C(=O)Nc2cc(S(=O)(=O)[O-])cc3cc(S(=O)(=O)[O-])cc(S(=O)(=O)[O-])c23)c1.[Na+].[Na+].[Na+].[Na+].[Na+].[Na+].[Na+].[Na+].[Na+] [8-{3-[3,5-Bis(3,6,8-trisulfo-1-naphthylcarbamoyl)phenyl] -2-thioureido}-1,3,6-naphthalenetrisulfonic acid nonasodium salt]
C-Late 035 Wells [1]: +1 Wells
In Vivo Activity (Guinea Pig) % Inhibition, Intraperitoneal, 30 min ([4]; i.p., 30 min): -50%
In Vivo Activity (Guinea Pig) % Inhibition, Intraperitoneal, 60 min ([4]; i.p., 60 min): -57%
In Vivo Activity (Guinea Pig) % Inhibition, Intraperitoneal, 120 min ([4]; i.p., 120 min): -74%
In Vivo Activity (Guinea Pig) % Inhibition, Intravenous, 2 min ([4]; i.v., 2 min): -97%
In Vivo Activity (Guinea Pig) % Inhibition, Intravenous, 30 min ([4]; i.v., 30 min): -79%
In Vivo Activity (Guinea Pig) % Inhibition, Intravenous, 120 min ([4]; i.v., 120 min): -58%

Cc1ccc(C(=O)Nc2ccc(S(=O)(=O)O)c3cc(S(=O)(=O)O)cc(S(=O)(=O)O)c23)cc1NC(=O)c1cccc(NC(=O)Nc2cccc(C(=O)Nc3cc(C(=O)Nc4ccc(S(=O)(=O)O)c5cc(S(=O)(=O)O)cc(S(=O)(=O)O)c45)ccc3C)c2)c1 [Suramin]
use in the treatment of hereditary angioneurotic edema [5]: used with success in the treatment of hereditary angioneurotic edema
anticomplementary effect / complement inhibition [6]: competitive inhibitor of the complement system

Nc1ccc2cc(S(=O)(=O)O)cc(O)c2c1N=Nc1ccc(NC(=O)Nc2ccc(N=Nc3c(N)ccc4cc(S(=O)(=O)O)cc(O)c34)c(S(=O)(=O)O)c2)cc1S(=O)(=O)O [chlorazol fast pink, 3,3'-ureylenebis-[6-(2-amino-8-hydroxy-6-sulfo-1-naphthylazo)]benzenesulfonic acid, tetrasodium salt]
anticomplementary effect / complement inhibition [6]: reported to have an anticomplementary effect

NCCCCCC(=O)O [epsilon-aminocaproic acid]
use in the treatment of hereditary angioneurotic edema [5]: used with success in the treatment of hereditary angioneurotic edema

NC[C@H]1CC[C@H](C(=O)O)CC1 [tranexamic acid]
use in the treatment of hereditary angioneurotic edema [5]: used with success in the treatment of hereditary angioneurotic edema

heparin
anticomplementary effect / complement inhibition [6]: reported to have an anticomplementary effect

pentosan-poly-sulfoester
anticomplementary activity, reduction in the total hemolytic complement activity [7]: anticomplementary activity on human serum both in vitro and in vivo
